Source: patent publication US8581605B2 (priority 2006, dated 2013)

Molecular target: αHL ion channel (Staphylococcus aureus, UniProt P09616)
Format: biochemical
Details: pH 7.4

Sequence of αHL ion channel (P09616 27-319 limits assumed): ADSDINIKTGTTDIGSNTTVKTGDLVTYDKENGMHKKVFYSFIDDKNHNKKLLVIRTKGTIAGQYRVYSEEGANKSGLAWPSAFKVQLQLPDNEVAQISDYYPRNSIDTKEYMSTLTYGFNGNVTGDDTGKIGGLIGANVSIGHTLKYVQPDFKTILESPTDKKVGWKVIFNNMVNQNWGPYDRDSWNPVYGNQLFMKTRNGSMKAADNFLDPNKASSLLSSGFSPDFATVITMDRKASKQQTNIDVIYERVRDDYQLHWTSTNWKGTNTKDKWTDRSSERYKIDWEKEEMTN

hepta-6-sulfato-β-cyclodextrin [s7βCD]
reduction of conductance through the αHL when s7βCD is bound: ~90%
